Each block holds one compound with its values, some of them ahead of it.
Tests used:
human albumin = human albumin (Homo sapiens, UniProt P02768); assay: saccharification (glycation) of albumin, glycoalbumin reagent; assay type: biochemical; details: albumin 3 g/dl
Method: (2) Method: After fragmenting albumin into amino acids by using protease K, i.e., glycoalbumin (GA) measurement reagent (made by Oriental Yeast Co., Ltd.), glycolysine was measured by using ketoamine oxydase (see FIG. 38). Glycation of human albumin with various rare saccharides was examined. A sample was prepared through the steps of dissolving 3 g/dl of pure human albumin in PBS and then dissolving each of the rare saccharides so as to prepare a solution in final concentration of 55.5 mM. The prepared solution was filtrated with a filter of 0.25 μm mesh and sterilized, followed by incubation at 37° C. for 7 days. During the incubation, the GA concentration (glycolysine concentration) was measured at intervals of exactly 24 hours. Further, similar experiments were conducted by adding each of the rare saccharides in an albumin solution (final concentration 3 g/dl) and a glucose solution (final concentration 55.5 mM) so that each of the rare saccharides had final concentration of 55.5 mM.

[1] = system: Rat leukocyte (granulocyte); assay: production of active oxygen from leukocyte, LO12 chemiluminescence, zymosan; assay type: cell-based; details: saccharide 10 mM added to the producing system, zymosan
Method: Influences of various kinds of rare saccharides upon production of active oxygen from leukocyte were examined under the conditions given below. In this Example 5, an effect against the production of active oxygen from leukocyte was examined with LO12 chemiluminescence.
(1) Target leukocyte to which the rare saccharides were added: Rat leukocyte (granulocyte) was used.
(2) Rare saccharides added: In addition to D-allose as a rare saccharide belonging to aldose, D-psicose and D-altros as rare saccharides belonging to ketose and D-tallitol belong to polyol were added as other comparative saccharides. Further, D-glucose and D-fructose were employed as saccharides abundant in the natural world.
(3) Experiment method: (1) Changes over time in production of active oxygen from rat leukocyte . . . The time-dependent progress in production of active oxygen caused by adding zymosan particles to rat leukocyte (granulocyte) was examined. Also, the time-dependent progress in production of active oxygen caused under the presence of each of the rare saccharides was examined.
(2) Influences of rare saccharides upon production of active oxygen . . . By adding the various saccharides to the system for producing active oxygen from leukocyte, the amount of produced active oxygen was measured for each saccharide. The concentration of each of the added rare saccharides was set to 10 mM. Also, the measurement was made under the condition without addition of any saccharides.
(3) Effect of rare saccharides upon production of active oxygen . . . The rare saccharides were each added at concentration of 10 mM after the start of phagocytosis and the start of the production of active oxygen subsequent to addition of zymosan to leukocyte.
(4) Concentration dependency of active-oxygen production inhibitory effect of D-allose . . . Concentration dependency of the active-oxygen production inhibitory effect of D-allose was examined. D-allose was added at concentration of 0 mM, 5 mM and 10 mM.

[2] = system: glutamate release from hippocampus; assay: temporary brain ischemia, glutamate outside hippocampus neurons by micro-dialysis; assay type: in vivo, gerbil; details: pre-administration; compared with effect of D-allose
Method: (2) Method: The bilateral common carotid artery of a gerbil was shut off for 5 minutes. After 1 week, the gerbil was sacrificed and a sample was prepared in accordance with the ordinary method, followed by hematoxyline eosin dyeing. The survival rate was measured by counting the number of hippocampus neurons while looking at them under a microscope. Experiments were performed on a normal control group, a group subjected to only ischemia, and a group administrated with 200 mg/kg of D-allose or D-psicose before ischemia. It is known that glutamates released in large amount from the neurons with ischemia are toxic to the neurons. Such a point was examined by fixing the gerbil to a brain position fixing device, perfusing a solution, in which oxidase glutamate is dissolved, to the hippocampus through a probe for micro-dialysis, and measuring the glutamate concentration outside the hippocampus neurons. Also, the inventors have clarified the relationship between the metabolism of glucose and the action mechanism of D-allose with ischemia by pre-administrating D-allose and 2-deoxiglucose.

[3] = system: Hepatic cancer cells (HepG2); assay: proliferation of cultured cells, MTT method, HepG2; assay type: cell-based, human; details: saccharide 50 mM, 4 to 5 days
Method: (§1) Various kinds of rare saccharides were added at a concentration of 50 mM to culture media under the following conditions, and an influence of each rare saccharide upon the progress of proliferation of cancer cell strains was examined.
(§2) (1) Target cells to which the rare saccharides were added: Hepatic cancer cells (HepG2), uterine cancer cells (He1a), ovary cancer cells (OVCAR3), and skin keratinocyte (HaCaT) were selected as target cells to which the rare saccharides were added.
(§3) (2) Rare saccharides added: In addition to D-allose, glucose and D-altros as rare saccharides belonging to ketose were added, as other comparative saccharides, to the addition target cells. Also, D-fructose was employed as a control.
(§4) (3) Experiment method: A number 3,000-5,000 of addition target cells per type were inoculated into a multi-well plastic dish (hereinafter referred to as a “well”) having 96 wells, and were cultured for 4 to 5 days in a culture medium supplemented with 5 to 10% of Fetal Bovine Serum (FBS) depending on the cell types. D-Allose, D-glucose and D-altros were each added at concentration of 50 mM to the addition target cells per type. Similarly, D-fructose as a control was added at a concentration of 50 mM. To examine the influence upon the cell proliferation, the cell number was measured in units of 24 hours by using the MTT method described below.
(1) Preparation of reagents: A predetermined amount of MTT (tetrazolium salt) was dissolved in PBS(−) sterilized in an autoclave to obtain an MTT solution through filtering and sterilization. An acidic solution was prepared by adding 50 mL of N,N-dimethylformaldehyde and water to a predetermined amount of (20 g) of SDS, thereby obtaining a 100 mL of solution. […]
(2) Test method: The cells were treated with TEP to prepare a cell suspension liquid. […] The absorbance of the liquid was measured at a wavelength of 570 to 600 nm by using a spectrophotometer. After dissolving the colored substance (formazan) in the acid solution, the absorbance can be measured directly by a plate reader.

[4] = system: ovary cancer cells (OVCAR3); assay: proliferation of cultured cells, MTT method, OVCAR3; assay type: cell-based; details: saccharide 50 mM, 4 to 5 days, MTT
Method: as §1, §2, §3, §4
(1) Preparation of reagents: A predetermined amount of MTT (tetrazolium salt) was dissolved in PBS(−) sterilized in an autoclave to obtain an MTT solution through filtering and sterilization. An acidic solution was prepared by adding 50 mL of N,N-dimethylformaldehyde and water to a predetermined amount of (20 g) of SDS, thereby obtaining a 100 mL of solution. About […] of 1N hydrochloric acid was added to the solution for adjustment of a pH-value to 4.7. The solution was preserved at room temperature and warmed up to 37° C. just before the use.
(2) Test method: The cells were treated with TEP to prepare a cell suspension liquid. This cell suspension liquid was pipetted in a predetermined cell-density (300 to 52000 cells/well) to each well (96-well plate: 0.1 mL of culture medium per well). The saccharide as a drug was added in a predetermined amount to each well, followed by cultivation for a whole day and night in a CO2 incubator. Then, 0.5 mg/mL of the MTT solution was added and the resulting culture was incubated for 4 hours in the incubator. Thereafter, the culture medium was completely removed. Then, in a room kept at 37° C., an acid solution was added in amount of 0.1 mL/well. The well plate was placed on a micro-plate mixer and shaken at 37° C. for 20 minutes to dissolve a colored substance (namely, to dissolve “formazan” in the acid solution). The absorbance of the liquid was measured at a wavelength of 570 to 600 nm by using a spectrophotometer. After dissolving the colored substance (formazan) in the acid solution, the absorbance can be measured directly by a plate reader.
(1) Experiment method: The ovary cancer cells (OVCAR3) were selected as target cells to which a rare saccharide was added, and D-allose as the saccharide was added at concentrations of 1 mM, 5 mM, 10 mM, 20 mM, 50 mM and 100 mM. The experimental conditions, such as the method of culturing the ovary cancer cells (OVCAR3) and the method of measuring the cell number (MTT method), were the same as those in Example 1.

[5] = system: skin keratinocyte (HaCaT); assay: proliferation of cultured cells, MTT method, HaCaT; assay type: cell-based, human; details: saccharide 50 mM, 4 to 5 days
Method: as §1, §2, §3
(3) Experiment method: A number 3,000-5,000 of addition target cells per type were inoculated into a multi-well plastic dish (hereinafter referred to as a “well”) having 96 wells, and were cultured for 4 to 5 days in a culture medium supplemented with 5 to 10% of Fetal Bovine Serum (FBS) depending on the cell types. […] To examine the influence upon the cell proliferation, the cell number was measured in units of 24 hours by using the MTT method described below. […]
(2) Test method: The cells were treated with TEP to prepare a cell suspension liquid. […] The absorbance of the liquid was measured at a wavelength of 570 to 600 nm by using a spectrophotometer. […]

HL-60 = assay: blood-system cancer cell strain proliferation, Coulter Counter, HL60; assay type: cell-based; details: 0.05-50 mM, 7 days, D-glucose control
Method: (§5) (2) Method: Total 6 kinds of cell strains, i.e., Myeloid (HL-60, THP-1, KG-1), T-cell (MT-2), and B-Cell (Daudi, KS-1), and 3 kinds of rare saccharides (i.e., D-psicose, D-altrose, and D-allose), were employed. The culture medium and the cells were prepared to be 1 mL in total and 1×10^5 in number, respectively. Then, the cell number at each of fourth day and seventh day was counted by using a Coulter Counter. Each rare saccharide was added at concentrations of 0.05, 0.5, 5 and 50 mM, while D-glucose was used as a control.
(§6) Culture Medium: FBS 10% added RPMI1460
(§7) Cultivation Conditions: 37° C., 5% CO2
(§8) Cultivation Vessel: FALCON, MULTIWELL, 12 wells
(§9) Number of Cultivation Days: 7 days
(§10) Saccharides Concentration: 0.05, 0.5, 5, 50 mM

Daudi = assay: blood-system cancer cell strain proliferation, Coulter Counter, Daudi; assay type: cell-based; details: 0.05-50 mM, 7 days, D-glucose control
Method: as §5, §6, §7, §8, §9, §10

[6] = saccharide 55.5 mM, 37° C., 7 days

Sequence of human albumin (P02768 25-609): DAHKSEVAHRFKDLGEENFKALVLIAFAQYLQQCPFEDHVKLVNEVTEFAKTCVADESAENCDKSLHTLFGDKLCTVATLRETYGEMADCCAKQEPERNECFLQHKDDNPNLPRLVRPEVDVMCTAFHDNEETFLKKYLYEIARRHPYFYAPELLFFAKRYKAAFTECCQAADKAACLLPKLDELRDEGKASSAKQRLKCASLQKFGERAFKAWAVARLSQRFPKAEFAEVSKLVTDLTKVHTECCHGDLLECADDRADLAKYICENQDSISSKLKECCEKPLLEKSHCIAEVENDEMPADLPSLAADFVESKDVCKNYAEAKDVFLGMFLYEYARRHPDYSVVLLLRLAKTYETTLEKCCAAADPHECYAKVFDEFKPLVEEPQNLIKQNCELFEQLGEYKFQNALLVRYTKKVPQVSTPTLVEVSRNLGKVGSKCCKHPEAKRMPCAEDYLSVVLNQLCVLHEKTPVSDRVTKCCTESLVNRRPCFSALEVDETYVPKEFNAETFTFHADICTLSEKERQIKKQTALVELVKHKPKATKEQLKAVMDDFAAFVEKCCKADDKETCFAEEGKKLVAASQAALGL

saccharification rate of albumin under coexistence with glucose (human albumin; saccharide 55.5 mM + D-glucose 55.5 mM): about 100 μmol/day
saccharification rate of albumin (human albumin; [6]): about 50 μmol/day
Compound: O=C[C@@H](O)[C@@H](O)[C@H](O)[C@H](O)CO [D-mannose, reference compound]

Compound: OC[C@@H](O)[C@H](O)[C@H](O)[C@H](O)CO [D-tallitol, reference compound]
production of active oxygen from leukocyte [1]: No inhibitory effect

Compound: O=CC[C@@H](O)[C@H](O)[C@H](O)CO [2-deoxyglucose, reference compound]
glutamate release inhibitory effect [2]: similarly observed

glycation (saccharification) of albumin (human albumin; [6]): do not cause the saccharification
Compound: O=C(CO)[C@@H](O)[C@H](O)[C@H](O)CO [D-fructose, reference compound]

Compound: O=C[C@@H](O)[C@H](O)[C@H](O)[C@H](O)CO [D-altrose, reference compound]
proliferation of HepG2 cells (cell number over time) [3]: weaker than that of D-allose
proliferation of OVCAR3 cells (cell number over time) [4]: weaker than that of D-allose
proliferation of HaCaT cells (cell number over time) [5]: inhibitory effect at a medium level
HL60 proliferation inhibitory effect (HL-60): showed no effect
Daudi-cell proliferation inhibitory effect (Daudi): showed no effect
production of active oxygen from leukocyte [1]: No inhibitory effect

— patent publication US8420606B2, “Method of utilizing physiological activity of rare saccharide and composition containing rare saccharide” (priority 2002, dated 2013)
